Measured values published in patent US9475766B2, “Substituted aromatic sulfur compounds and methods of their use” (Cephalon, Inc., priority 2011, dated 2016).
Structures can show the parent of a compound that is named as a salt.

Tests used:
[1] = tested on: BxPC3 pancreatic cell line; test: Cell survival and adhesion assay (luciferase), BxPC3; type: cell-based; details: BXPC-3, 5 hours, BxPC3 cells overlayed onto human mesothelial cell monolayers, read-out: relative reduction in Luciferase activity, BxPC3 10 μM
In short: (§1)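 Luciferase-expressing tumour cells (10^5) were overlaid on confluent human mesothelial cell monolayers together with compound or DMSO for 5 hours. Non-adherent cells were washed off; adherent, surviving cells were lysed, protein-normalised and quantified by firefly luciferase luminescence.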

[2] = tested on: HT29 colon cancer cell line; test: Cell survival and adhesion assay (luciferase), HT29; type: cell-based; details: HT-29, 5 hours, HT29 cells overlayed onto human mesothelial cell monolayers, read-out: relative reduction in Luciferase activity, HT29 10 μM
Procedure: SU86 is a pancreatic cancer cell line. HT29 is a colon cancer cell line. BxPC3 is a pancreatic cell line. A2780 is an ovarian cancer cell line.
BxPc-3 and Su.86.86 pancreatic and HT-29 colon and A2780 ovarian cancer cell lines were purchased from ATCC and cultured in DMEM supplemented with 10% fetal bovine serum, glutamine, penicillin, and streptomycin. All cells were cultured at 37° C. in a humidified incubator in a 5% CO2 atmosphere. The cancer cell lines were transduced with a retrovirus containing pLuc-puro, a constitutive luciferase reporter and selected in […] media. Transient transfection of a full-length human c-FLIP construct in the vector pcDNA3 was performed as previously described. Scaife et al. Cancer Research 2002, 62: 6870-78.
Pancreatic cancer cell cultures (BxPc-3 and Su.86.86) and colon cancer (HT-29) and ovarian cancer (A2780) cells that were stably transfected with a firefly luciferase construct were transiently suspended with trypsin-PBS. 10^5 cells were overlayed onto confluent monolayers of human mesothelial cells in 96-well plates while simultaneously adding various concentrations of compounds of the invention or DMSO for 5 hours. The non-adherent cells were carefully washed away from the wells twice with 100 μl/well of blocking buffer (1% BSA in PBS) and twice again with ice-cold PBS. Adherent and surviving cells were detected by luciferase activity in a luminometer as follows. The cells were lysed in 0.1% TritonX-100, 25 mM Gly-Gly (7.8), MgSO4, 4 mM EGTA, 1 mM DTT. The total protein concentration was normalized with lysis buffer. 50 μl of cell lysate was added per well of a 96-well microtiter plate. 50 μl of luciferin substrate (Promega) was added per well and then the light output determined in a luminometer.

[3] = tested on: A2780 ovarian cancer cell line; test: Cell survival and adhesion assay (luciferase), A2780; type: cell-based; details: 5 hours, A2780 cells overlayed onto human mesothelial cell monolayers, read-out: relative reduction in Luciferase activity, A2780 10 μM
In short: as §1

[4] = tested on: SU86 pancreatic cancer cell line (Su.86.86); test: Cell survival and adhesion assay (luciferase), SU86; type: cell-based; details: 5 hours, SU86 cells overlayed onto human mesothelial cell monolayers, read-out: relative reduction in Luciferase activity, SU86 10 μM
In short: as §1

| Structure (SMILES) | inhibition at 10 µM [1] [%] | inhibition at 10 µM [2] [%] | melting point [°C] | inhibition at 10 µM [3] [%] | inhibition at 10 µM [4] [%] |
| --- | --- | --- | --- | --- | --- |
| C=C(c1ccccc1)S(=O)(=O)c1ccc(C(C)(C)C)cc1 [Example 58, 1-tert-Butyl-4-(1-phenyl-ethenesulfonyl)-benzene] | 50 to 85 | 10 to 50 | 99 | < 10 | 10 to 50 |
| CCOC(=O)/C=C/S(=O)(=O)c1ccc(C(C)(C)C)cc1 [Example 59, (E)-3-(4-tert-Butyl-benzenesulfonyl)-acrylic acid ethyl ester] | 50 to 85 | 10 to 50 | 88 to 91 | 50 to 85 | 10 to 50 |
| CC(C)(C(=O)NCc1ccc(-n2cccn2)cc1)c1ccc(S(=O)(=O)/C=C/C#N)cc1 (as salt: trifluoroacetic acid salt) [Example 21, 2-[4-((E)-2-Cyano-ethenesulfonyl)-phenyl]-N-(4-pyrazol-1-yl-benzyl)-isobutyramide] |  |  | 47 to 53 |  |  |
| CC(C)(C)c1ccc(S(=O)(=O)/C=C/C(N)=O)cc1 [Example 55, (E)-3-(4-tert-Butyl-benzenesulfonyl)-acrylamide] | 50 to 85 | 10 to 50 | 151 | 10 to 50 | 10 to 50 |
| CC(C)(C(=O)NC1CCCCC1)c1ccc(S(=O)(=O)/C=C/C#N)cc1 [Example 12, 2-[4-((E)-2-Cyano-ethenesulfonyl)-phenyl]-N-cyclohexyl-isobutyramide] | 50 to 85 | < 10 | 191 to 193 | 50 to 85 | 50 to 85 |
| COc1ccc(NC(=O)C(C)(C)c2ccc(S(=O)(=O)/C=C/C#N)cc2)cc1 [Example 23, 2-[4-((E)-2-Cyano-ethenesulfonyl)-phenyl]-N-(4-methoxy-phenyl)-isobutyramide] | 50 to 85 |  | 123 to 126 | > 85 | 50 to 85 |
| CC(C)(C)c1ccc(S(=O)(=O)/C=C/c2ccccc2)cc1 [Example 57, 1-tert-Butyl-4-((E)-2-phenyl-ethenesulfonyl)-benzene] | < 10 | < 10 | 95 | < 10 | < 10 |
| C/C=C/S(=O)(=O)c1ccc(C(C)(C)C)cc1 [Example 56, 1-tert-Butyl-4-[((E)-prop-1-ene)-1-sulfonyl]-benzene] | < 10 | < 10 | 80 | < 10 | < 10 |
| COc1cccc(NC(=O)COc2ccc(S(=O)(=O)/C=C/C#N)cc2C(C)(C)C)c1 [Example 65, 2-[2-tert-Butyl-4-((E)-2-cyano-ethenesulfonyl)-phenoxy]-N-(3-methoxy-phenyl)-acetamide] | 50 to 85 | > 85 |  | > 85 | 50 to 85 |
| CC(C)(C(=O)N1CCc2ccccc2C1)c1ccc(S(=O)(=O)/C=C/C#N)cc1 [Example 20, (E)-3-{4-[2-(3,4-Dihydro-1H-isoquinolin-2-yl)-1,1-dimethyl-2-oxo-ethyl]-benzenesulfonyl}-acrylonitrile] | > 85 |  | 54 to 60 | > 85 | 50 to 85 |
